Measured values reported in publication PMC7160673, “A Degenerate Peptide Library Approach to Reveal Sequence Determinants of Methyllysine-Driven Protein Interactions” (Frontiers in Cell and Developmental Biology, 2020).

Columns and labels:
Format in all cases: binding
[1] = test system: Millipore #07-449, anti-H3K27me3; experiment: Histone peptide microarray, Millipore 07-449; conditions: Millipore 07-449 (anti-H3K27me3) hits, average signal per peptide
[2] = test system: CST 9733 (anti-H3K27me3); experiment: Histone peptide microarray, CST 9733; conditions: histone peptide array signal normalized to the highest peptide average per subarray, hits; CST 9733 LOT:14 dilution 1:5,000
[3] = test system: Abcam #ab8895, anti-H3K4me1; experiment: Histone peptide microarray, Abcam ab8895; conditions: Abcam ab8895 (anti-H3K4me1) hits, average signal per peptide
[4] = test system: ABClonal #A2355, anti-H3K4me1; experiment: Histone peptide microarray, ABclonal A2355; conditions: Abclonal A2355 (anti-H3K4me1) hits
Method: (§1) Peptide microarrays were fabricated using an Aushon 2470 microarrayer and used as described ([Cornett et al., 2017]) with the following modifications. Protein and antibody hybridization steps were performed in buffer containing 25 mM HEPES pH 7.5, 100 mM NaCl, 0.5% BSA (w/v), and 0.1% NP-40. Slides were washed 3 × 5 min in PBS supplemented with 0.1% Tween-20 between each hybridization step. Antibodies used were primary anti-GST (Sigma #7781, 1:2,000 dilution) and an AlexaFluor 647-labeled secondary antibody (Life Technologies A-21245, 1:5,000 dilution). […] Full lists of peptides queried by array analysis are in Supplementary Table S2.

[5] = test system: Active Motif #39161, anti-H3K9me3; experiment: Histone peptide microarray, Active Motif 39161; conditions: Active Motif 39161 (anti-H3K9me3) hits
[6] = test system: 53BP1 TTD; experiment: Histone peptide microarray, 53BP1 TTD; conditions: 53BP1 TTD hits, average signal per peptide
Outline: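 Binding of protein or antibody to arrayed histone peptides read by AlexaFluor 647 fluorescence, with anti-GST primary (1:2,000) and labelled secondary (1:5,000) for GST-fused domain. Hybridisations in HEPES pH 7.5 buffer with 100 mM NaCl, 0.5% BSA and 0.1% NP-40; triple PBS-Tween washes between steps.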

[7] = target: T1, MPP8 chromo (Homo sapiens, UniProt Q99549); experiment: Histone peptide microarray, MPP8 chromo; conditions: normalized histone peptide array signal, hits; hybridization with 1 M MPP8 chromo (so in the source); two subarrays
T1 construct: 50-118; made in house; host or cells: E. coli BL21
T1 sequence (Q99549 50-118): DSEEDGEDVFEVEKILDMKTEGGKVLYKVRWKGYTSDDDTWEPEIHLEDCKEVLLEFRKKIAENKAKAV
Method: as §1

[8] = target: T2, CDYL2 chromo (Homo sapiens, UniProt Q8N8U2); experiment: Histone peptide microarray, CDYL2 chromo; conditions: normalized histone peptide array signal, hits; hybridization with 1 M CDYL2 chromo (so in the source); two subarrays
T2 construct: 1-75; made in house; host or cells: E. coli BL21
T2 sequence (Q8N8U2 1-75): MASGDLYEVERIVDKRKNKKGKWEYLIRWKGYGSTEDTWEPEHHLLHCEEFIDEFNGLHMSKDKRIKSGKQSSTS
Method: as §1

Row | Avg Signal [7] | Avg Signal [8] | Substance | Avg Signal [1] | Avg Signal [2] | Avg Signal [3] | Avg Signal [4] | Avg Signal [5] | Avg Signal [6]
1 |  |  | Ac-SGRGQGGQGLGK(Ac)GGAQRHRQVLR-Peg-Biot [H4K12acK5QK8QK16QK20Q] | 0.0006189 | 0.0003661 | 0.02356 | 0.0006964 | 0.02202 | 
2 |  |  | ARTK(Me2)QpTARK(Ac)STGGK(Ac)APRK(Ac)QL-K(Biot)-NH2 [H3.1K4me2T6pK9acK14acK18ac] |  | 0.0006457 | 0.2093 | 0.3869 |  | 0.3467
3 |  |  | AR(Me2a)TK(Me3)QTARK(Ac)STGGK(Ac)APRK(Ac)QL-K(Biot)-NH2 [H3.1R2me2aK4me3K9acK14acK18ac] | 0.02578 | 0.007631 | 0.04451 | 0.01872 | 0.01091 | 0.02297
4 | 0.4258 |  | ARTKQTAR(Me2a)K(Me)STGGKAPRKQL-K(Biot)-NH2 [H3.1R8me2aK9me1] |  |  | 0.513 | 0.006716 | 0.00542 | 0.1501
5 |  | 0.1275 | Ac-APRKQLATKAARK(Me3)SAPSTGG-Peg-Biot [Peptide H3.3K27me3] | 0.2205 | 1 |  |  | 0.01689 | 0.04567
6 |  |  | ARTK(Me3)QTARKSTGGKAPRK(Ac)QL-K(Biot)-NH2 [H3.1K4me3K18ac] | 0.03479 | 0.006885 | 0.01446 | 0.001684 | 0.09175 | 0.08895
7 |  |  | Ac-pSGR(Me2a)GK(Ac)QGGKARAKAKTR-Peg-Biot [H2AS1pR3me2aK5ac] |  | 0.0004026 | 0.08644 | 0.05587 | 0.0003455 | 0.1102
8 | 0.2405 |  | ARTK(Ac)QTARK(Me2)STGGK(Ac)APRK(Ac)QL-K(Biot)-NH2 [H3.1K4acK9me2K14acK18ac] | 0.005667 | 3.787e-5 | 0.0002166 |  |  | 0.5858
9 |  |  | ACitTK(Me3)QTARK(Ac)STGGK(Ac)APRK(Ac)QL-K(Biot)-NH2 [H3.1Cit2K4me3K9acK14acK18ac] | 0.0318 | 0.00661 |  | 0.0002223 | 0.03654 | 0.1358
10 |  |  | ARTK(Me)QTARKSTGGKAPRK(Ac)QL-Peg-Biot [H3.1K4me1K18ac] | 0.002272 | 1.355e-5 | 0.7343 | 0.5708 |  | 
11 |  |  | AR(Me)TK(Me2)QTARKSTGGKAPRKQL-K(Biot)-NH2 [H3.1R2me1K4me2] |  | 0.0008431 | 0.2976 | 0.4048 | 0.0007938 | 0.4867
12 | 0.1744 |  | ARTKQTAR(Me2s)K(Me)STGGKAPRKQL-K(Biot)-NH2 [H3.1R8me2sK9me1] |  | 0.01277 | 0.3635 |  | 0.003577 | 0.2791
13 |  | 0.04723 | AGGK(Ac)AGK(Ac)DSGK(Ac)AKAKAVSR-Peg-Biot [H2A.Z.2K4acK7acK11ac] | 0.003296 |  |  |  | 0.02451 | 
14 |  |  | Ac-GKGGAKRHRK(Me2)VLRDNIQ-Peg-Biot [Peptide H4K20me2] |  | 0.000354 | 0.06608 | 0.04168 | 0.01321 | 1
15 | 0.09452 |  | Ac-APRKQLATK(Me3)AARKSAPATGG-Peg-K(Biot)-NH2 [Peptide H3.1K23me3] | 0.005165 | 5.2822e-5 |  |  | 0.01355 | 
16 | 0.4905 |  | ARTKQTARK(Me)STGGKAPRKQL-K(Biot)-NH2 [Peptide H3.1K9me1] | 0.001651 |  | 0.4772 |  | 0.000221 | 0.2555
